From ChEMBL document CHEMBL1201862, “PubChem BioAssay data set” (2004)
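Assay format: 96-well plates, 48-hour exposure. GI50 is the concentration that inhibits growth by half.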 Calls of active or inactive are those of the source. Cut-off read from the data, not from the text of the source: active = GI50 up to about 1.1 µM and inactive = higher.

Columns and labels:
Experiment in all cases: NCI anticancer screen, dose series, 48 h
786-0 = tested on: 786-0
A549 = tested on: A549
ACHN = tested on: ACHN
CAKI-1 = tested on: CAKI-1
CCRF-CEM = tested on: CCRF-CEM
COLO 205 = tested on: COLO 205
DLD-1 = tested on: DLD-1
DMS-114 = tested on: DMS-114
EKVX = tested on: EKVX
HCC 2998 = tested on: HCC 2998
HCT-116 = tested on: HCT-116
HCT-15 = tested on: HCT-15
HL-60 = tested on: HL-60
HOP-62 = tested on: HOP-62
HOP-92 = tested on: HOP-92
HT-29 = tested on: HT-29
IGROV-1 = tested on: IGROV-1
K562 = tested on: K562
KM-20L2 = tested on: KM-20L2
KM12 = tested on: KM12
LOX IMVI = tested on: LOX IMVI
LXFL 529 = tested on: LXFL 529
M14 = tested on: M14
M19-MEL = tested on: M19-MEL
MOLT-4 = tested on: MOLT-4
Malme-3M = tested on: Malme-3M
NCI-H226 = tested on: NCI-H226
NCI-H23 = tested on: NCI-H23
NCI-H460 = tested on: NCI-H460
NCI-H522 = tested on: NCI-H522
OVCAR-3 = tested on: OVCAR-3
OVCAR-4 = tested on: OVCAR-4
OVCAR-5 = tested on: OVCAR-5
OVCAR-8 = tested on: OVCAR-8
RPMI-8226 = tested on: RPMI-8226
RXF 631 = tested on: RXF 631
SF-268 = tested on: SF-268
SF-539 = tested on: SF-539
SK-MEL-28 = tested on: SK-MEL-28
SK-MEL-2 = tested on: SK-MEL-2
SK-MEL-5 = tested on: SK-MEL-5
SK-OV-3 = tested on: SK-OV-3
SN12C = tested on: SN12C
SNB-19 = tested on: SNB-19
SNB-75 = tested on: SNB-75
SNB-78 = tested on: SNB-78
SW-620 = tested on: SW-620
TK-10 = tested on: TK-10
U-251 = tested on: U-251
UACC-257 = tested on: UACC-257
UACC-62 = tested on: UACC-62
UO-31 = tested on: UO-31
XF498 = tested on: XF498
A498 = tested on: A498
DMS-273 = tested on: DMS-273
HOP-18 = tested on: HOP-18
RXF 393 = tested on: RXF 393
SF-295 = tested on: SF-295
SR = tested on: SR

CC(=O)OCC1OC(n2c(-c3ccc(C)cc3)cc(-c3ccccc3)c(C#N)c2=O)C(OC(C)=O)C(OC(C)=O)C1OC(C)=O (stereo not given) was tested, and the GI50 (786-0) was > 100 µM (inactive), the GI50 (A549) was > 100 µM (inactive) and the GI50 (ACHN) was > 100 µM (inactive). The GI50 (CAKI-1) was > 100 µM (inactive), the GI50 (CCRF-CEM) was > 100 µM (inactive) and the GI50 (COLO 205) was > 100 µM (inactive). For the same molecule, the GI50 (DLD-1) was > 100 µM (inactive), the GI50 (DMS-114) was > 100 µM (inactive) and the GI50 (EKVX) was > 100 µM (inactive). The GI50 (HCC 2998) was > 100 µM (inactive), the GI50 (HCT-116) was > 100 µM (inactive) and the GI50 (HCT-15) was > 100 µM. The GI50 (HL-60) was 48.9 µM (inactive), the GI50 (HOP-62) was > 100 µM (inactive) and the GI50 (HOP-92) was > 100 µM (inactive). The GI50 (HT-29) was > 100 µM (inactive), the GI50 (IGROV-1) was > 100 µM (inactive) and the GI50 (K562) was > 100 µM (inactive). For the same molecule, the GI50 (KM-20L2) was > 100 µM (inactive), the GI50 (KM12) was > 100 µM (inactive) and the GI50 (LOX IMVI) was > 100 µM (inactive). The GI50 (LXFL 529) was > 100 µM (inactive), the GI50 (M14) was > 100 µM (inactive) and the GI50 (M19-MEL) was > 100 µM (inactive). The GI50 (MOLT-4) was > 100 µM (inactive), the GI50 (Malme-3M) was > 100 µM (inactive) and the GI50 (NCI-H226) was > 100 µM (inactive). For the same molecule, the GI50 (NCI-H23) was 60.7 µM (inactive), the GI50 (NCI-H460) was > 100 µM (inactive) and the GI50 (NCI-H522) was 82.6 µM (inactive). The GI50 (OVCAR-3) was > 100 µM (inactive), the GI50 (OVCAR-4) was > 100 µM (inactive) and the GI50 (OVCAR-5) was > 100 µM (inactive). The GI50 (OVCAR-8) was > 100 µM (inactive), the GI50 (RPMI-8226) was 67.1 µM (inactive) and the GI50 (RXF 631) was > 100 µM (inactive). The GI50 (SF-268) was > 100 µM (inactive), the GI50 (SF-539) was > 100 µM (inactive) and the GI50 (SK-MEL-28) was > 100 µM (inactive). The GI50 (SK-MEL-2) was > 100 µM (inactive), the GI50 (SK-MEL-5) was > 100 µM (inactive) and the GI50 (SK-OV-3) was > 100 µM (inactive). For the same molecule, the GI50 (SN12C) was > 100 µM (inactive), the GI50 (SNB-19) was > 100 µM (inactive) and the GI50 (SNB-75) was 71.6 µM (inactive). The GI50 (SNB-78) was > 100 µM (inactive), the GI50 (SW-620) was > 100 µM (inactive) and the GI50 (TK-10) was > 100 µM (inactive). For the same molecule, the GI50 (U-251) was > 100 µM (inactive), the GI50 (UACC-257) was > 100 µM (inactive) and the GI50 (UACC-62) was > 100 µM (inactive). The GI50 (UO-31) was > 100 µM (inactive) and the GI50 (XF498) was 86.9 µM (inactive).
In the case of CC(=O)OC(C)(C)[C@@H]1CC[C@]2(C)/C=C/[C@H](C)C[C@@H](O)C3=C(C)C[C@@H](O3)C12 (stereo not given in full), the GI50 (786-0) is reported as > 100 µM (inactive), the GI50 (A498) is reported as > 100 µM (inactive) and the GI50 (A549) is reported as > 100 µM (inactive). For the same molecule, the GI50 (ACHN) was > 100 µM (inactive), the GI50 (CAKI-1) was > 100 µM (inactive) and the GI50 (CCRF-CEM) was > 100 µM (inactive). For the same molecule, the GI50 (COLO 205) was > 100 µM (inactive), the GI50 (DLD-1) was > 100 µM (inactive) and the GI50 (DMS-114) was > 100 µM (inactive). The GI50 (DMS-273) was > 100 µM (inactive), the GI50 (EKVX) was > 100 µM (inactive) and the GI50 (HCC 2998) was > 100 µM (inactive). For the same molecule, the GI50 (HCT-116) was > 100 µM (inactive), the GI50 (HCT-15) was > 100 µM and the GI50 (HL-60) was > 100 µM (inactive). For the same molecule, the GI50 (HOP-18) was > 100 µM (inactive), the GI50 (HOP-62) was > 100 µM (inactive) and the GI50 (HOP-92) was > 100 µM (inactive). The GI50 (HT-29) was > 100 µM (inactive), the GI50 (IGROV-1) was > 100 µM (inactive) and the GI50 (K562) was > 100 µM (inactive). The GI50 (KM-20L2) was > 100 µM (inactive), the GI50 (KM12) was > 100 µM (inactive) and the GI50 (LOX IMVI) was > 100 µM (inactive). For the same molecule, the GI50 (LXFL 529) was > 100 µM (inactive), the GI50 (M14) was > 100 µM (inactive) and the GI50 (M19-MEL) was > 100 µM (inactive). For the same molecule, the GI50 (MOLT-4) was > 100 µM (inactive), the GI50 (Malme-3M) was > 100 µM (inactive) and the GI50 (NCI-H226) was 49.1 µM (inactive). For the same molecule, the GI50 (NCI-H23) was > 100 µM (inactive), the GI50 (NCI-H460) was > 100 µM (inactive) and the GI50 (OVCAR-3) was > 100 µM (inactive). For the same molecule, the GI50 (OVCAR-4) was > 100 µM (inactive), the GI50 (OVCAR-5) was > 100 µM (inactive) and the GI50 (OVCAR-8) was > 100 µM (inactive). The GI50 (RPMI-8226) was > 100 µM (inactive), the GI50 (RXF 393) was 94.6 µM (inactive) and the GI50 (RXF 631) was > 100 µM (inactive). For the same molecule, the GI50 (SF-268) was > 100 µM (inactive), the GI50 (SF-295) was > 100 µM (inactive) and the GI50 (SF-539) was > 100 µM (inactive). The GI50 (SK-MEL-28) was > 100 µM (inactive), the GI50 (SK-MEL-2) was > 100 µM (inactive) and the GI50 (SK-MEL-5) was > 100 µM (inactive). The GI50 (SK-OV-3) was > 100 µM (inactive), the GI50 (SN12C) was > 100 µM (inactive) and the GI50 (SNB-19) was > 100 µM (inactive). The GI50 (SNB-75) was > 100 µM (inactive), the GI50 (SNB-78) was > 100 µM (inactive) and the GI50 (SR) was > 100 µM (inactive). For the same molecule, the GI50 (SW-620) was > 100 µM (inactive), the GI50 (TK-10) was > 100 µM (inactive) and the GI50 (U-251) was > 100 µM (inactive). For the same molecule, the GI50 (UACC-257) was > 100 µM (inactive), the GI50 (UACC-62) was > 100 µM (inactive) and the GI50 (UO-31) was > 100 µM (inactive).
